How the values were obtained:
[1] = target: T1, Calf uterine cytosolic estrogen receptor (Bos taurus, UniProt P49884); assay: Estrogen Receptor assay, competition with 6,7-3H2-estradiol; format: binding
T1 construct: Calf uterine cytosolic estrogen receptor; from tissue; host or cells: calf uterus, cytosol
T1 sequence (P49884 1-596): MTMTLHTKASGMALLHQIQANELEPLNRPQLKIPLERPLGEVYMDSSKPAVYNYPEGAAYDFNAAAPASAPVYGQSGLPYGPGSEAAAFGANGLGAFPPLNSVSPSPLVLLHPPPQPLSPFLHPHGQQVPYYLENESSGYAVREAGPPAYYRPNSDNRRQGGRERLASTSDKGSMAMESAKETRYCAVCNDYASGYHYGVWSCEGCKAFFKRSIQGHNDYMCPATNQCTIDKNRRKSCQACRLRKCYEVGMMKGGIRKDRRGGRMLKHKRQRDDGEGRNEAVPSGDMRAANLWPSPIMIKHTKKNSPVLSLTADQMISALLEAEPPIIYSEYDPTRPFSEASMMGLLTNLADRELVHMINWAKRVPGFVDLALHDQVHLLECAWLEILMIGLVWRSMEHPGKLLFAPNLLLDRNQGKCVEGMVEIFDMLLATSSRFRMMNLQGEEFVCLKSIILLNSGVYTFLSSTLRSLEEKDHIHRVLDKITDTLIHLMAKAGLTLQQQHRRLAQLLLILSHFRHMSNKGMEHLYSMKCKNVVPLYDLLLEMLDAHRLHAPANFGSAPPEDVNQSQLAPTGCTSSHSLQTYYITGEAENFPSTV

[2] = test system: infantile female white swiss mouse; assay: Uterotropic Assay compared to estrone as standard; format: in vivo
[3] = as described for the prior art; cited from earlier work
estrogen receptors = conditions: as described for the prior art; cited from earlier work

Substance: (17β)-17-(1,2-dicarbadodecaboran(12)-1-yl)estra-1,3,5(10)-triene-3,17-diol 17-acetate [III]
- estrophilic activity relative to estradiol-17β 3-carboranylmethyl ether ([1]; compared with value reported in Steroids 37, 223 (1981)): about two
- 50% inhibition to binding ([1]; competition with 6,7-3H2-estradiol): 1 Mole equivalent
- uterotropic activity relative to estrone ([2]; 3×3 assay, 5-6 animals per dose, estrone as standard): about 80%
- response compared to estrone (uterotropic) ([2]; 4×4 assay, 9-10 animals per dose, estrone as standard): 63%
- uterotopic response of estrone ([2]; summary statement, relative to estrone): at least 63%

Substance: estradiol-17β 3-carboranylmethyl ether
- uterotopic activity [3]: very low
- estrophilic activity (estrogen receptors): very low

Reference: patent publication US4466952A, “Compositions and process for the treatment of cancer” (Indiana University Foundation, priority 1983, dated 1984)
